Earlier results, collected in patent publication US7015235B2, “Acylated piperidine derivatives as melanocortin-4 receptor agonists” (priority 2001, dated 2006).

Test system: men

## Cc1ccc(N(CC2=NCCN2)c2cccc(O)c2)cc1 [phentolamine]
After an oral dose
  duration of effect: 2 h
  onset of action: 5 to 30 min
oral
  share of men/patients with adequate response: 35–40%
